# Assays:
# human COX-2 = molecular target: T1, human COX-2 (Homo sapiens, UniProt P35354); experiment: Cyclooxygenase colorimetric inhibitor screening assay, COX-2; assay type: biochemical; conditions: human COX-2, colorimetric kit; read-out: hCOX-2; IC50;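 further: peroxidase activity of COX-2 followed colorimetrically through formation of oxidized TMPD at 590 nm, with arachidonic acid as substrate, compounds tested from 0.001 to 50 µM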
# T1 construct: purchased Cayman Chemicals 701050
# T1 sequence (P35354 18-604): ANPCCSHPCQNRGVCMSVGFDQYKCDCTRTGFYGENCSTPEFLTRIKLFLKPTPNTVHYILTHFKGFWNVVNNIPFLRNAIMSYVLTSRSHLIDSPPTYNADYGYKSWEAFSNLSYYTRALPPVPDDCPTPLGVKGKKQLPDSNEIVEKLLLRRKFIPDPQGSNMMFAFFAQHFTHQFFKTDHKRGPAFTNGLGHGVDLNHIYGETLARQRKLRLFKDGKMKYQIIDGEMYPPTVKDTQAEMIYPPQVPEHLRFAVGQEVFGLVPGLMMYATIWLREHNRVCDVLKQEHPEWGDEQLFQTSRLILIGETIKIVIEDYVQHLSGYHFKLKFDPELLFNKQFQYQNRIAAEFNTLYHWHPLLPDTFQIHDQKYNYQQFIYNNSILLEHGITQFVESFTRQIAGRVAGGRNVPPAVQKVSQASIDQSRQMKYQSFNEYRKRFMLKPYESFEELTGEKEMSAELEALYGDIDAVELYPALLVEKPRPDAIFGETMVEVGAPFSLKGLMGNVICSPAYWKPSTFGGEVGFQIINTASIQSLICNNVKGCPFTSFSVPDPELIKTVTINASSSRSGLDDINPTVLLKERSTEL
# Description: (§1) Newly synthesized compounds were evaluated for their ability to inhibit ovine COX-1 or human COX-2 enzyme by measuring the extent (%) of enzyme activity inhibition at different concentrations (0.001, 0.01, 0.1, 1, 10, 50 μM). […] The assay kit measures the peroxidase component of COXs that is assayed colorimetrically by monitoring the appearance of oxidized N,N,N′,N′-tetramethyl-p-phenylenediamine (TMPD) a λ = 590 nm. […] Stock solutions of test compounds were dissolved in DMSO.
# ovine COX-1 = molecular target: T2, ovine COX-1 (Ovis aries, UniProt P05979); experiment: Cyclooxygenase colorimetric inhibitor screening assay, COX-1; assay type: biochemical;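 further: COX peroxidase activity read colorimetrically as oxidized TMPD at 590 nm, arachidonic acid as substrate, inhibitors tested at 0.001–50 µM from DMSO stocks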
# T2 construct: purchased Cayman Chemicals 701050
# T2 sequence (P05979 25-600): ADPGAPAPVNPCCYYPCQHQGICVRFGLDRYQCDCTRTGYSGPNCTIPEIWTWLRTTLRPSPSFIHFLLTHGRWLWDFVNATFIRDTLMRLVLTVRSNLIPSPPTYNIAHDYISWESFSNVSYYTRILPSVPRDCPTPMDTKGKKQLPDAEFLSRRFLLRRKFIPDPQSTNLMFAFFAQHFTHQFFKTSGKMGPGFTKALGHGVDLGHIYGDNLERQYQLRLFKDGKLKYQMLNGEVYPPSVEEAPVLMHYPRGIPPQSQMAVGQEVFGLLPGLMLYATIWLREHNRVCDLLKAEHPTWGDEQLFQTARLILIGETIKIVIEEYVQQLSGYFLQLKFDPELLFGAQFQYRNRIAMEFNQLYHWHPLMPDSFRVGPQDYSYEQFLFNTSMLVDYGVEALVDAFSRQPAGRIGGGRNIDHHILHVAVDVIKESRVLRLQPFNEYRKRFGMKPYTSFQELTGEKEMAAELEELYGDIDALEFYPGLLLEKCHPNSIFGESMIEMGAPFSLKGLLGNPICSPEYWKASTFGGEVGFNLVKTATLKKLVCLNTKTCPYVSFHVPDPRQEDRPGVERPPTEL
# Description: as §1
smiles,measurement,setting,value
"Cc1ccc(-c2cc(N)cc(-c3ccccc3)c2)cc1 [Compound 3b, 4-Methyl-5′-amino-m-terphenyl]",IC50,human COX-2,> 50 µM
same,inhibition at 50 µM,"ovine COX-1; ovine COX-1, 50 µM, read-out: oCOX-1, % Inhibition at 50 µM (converted)",83%
same,IC50,"ovine COX-1; ovine COX-1, colorimetric kit, triplicate, read-out: oCOX-1, IC50",1100 ± 180 nM
same,COX-1 selectivity (in words),ovine COX-1; ovine COX-1 vs human COX-2,complete selectivity towards COX-1

# Reference: publication PMC10384011, “m-Terphenylamines, Acting as Selective COX-1 Inhibitors, Block Microglia Inflammatory Response and Exert Neuroprotective Activity” (Molecules, 2023)
